In article PMC10115881, “Disrupting the α-synuclein-ESCRT interaction with a peptide inhibitor mitigates neurodegeneration in preclinical models of Parkinson’s disease” (Nature Communications, 2023):

Tests used:
[1] = test system: A53T a-syn oligomers; assay: Split-YFP PCA/FACS screen of A53T a-syn oligomers; type: cell-based, human
Description: We used a lentiviral library of 50,549 7-mer peptides enriched in PPI motifs[13] on a green fluorescent protein (GFP) scaffold (Fig. 1A). We infected cells in a pooled format and the amino acid sequence of each peptide served as its own barcode. By using a low multiplicity of infection followed by puromycin selection, each infected cell expressed one unique GFP-peptide. We screened for peptides that reduced a-syn-mediated cytotoxicity or a-syn oligomers in parallel (Fig. 1A). To cause cytotoxicity relevant to PD, we induced proteostatic stress in HEK293 cells by inhibiting the proteasome with MG132 and overexpressing human WT a-syn associated with idiopathic PD in one screen or the more toxic mutant A53T a-syn associated with familial PD in a second screen. This combination of a-syn overexpression and pharmacological proteasome inhibition led to death of most cells, with only those that expressed a protective peptide surviving. By extracting genomic DNA from the surviving cells and amplifying the peptide coding sequences, we identified the protective peptides (Fig. 1A). To detect a-syn oligomers, we used a protein fragment complementation assay (PCA) of a-syn oligomerization in HEK293 cells. In this assay, human A53T a-syn was fused to either the C- or N-terminal half of yellow fluorescent protein (YFP). No fluorescence is detectable while a-syn exists in monomers but, when a-syn oligomerizes, the two halves of YFP come in close enough proximity to form a functional, spontaneously fluorescent protein. […] Our screens yielded 10 hits (Table S1). The hit with the most reads (i.e., the most abundant) was the same peptide in all screens: IPIQLKA (named PDpep1) (Table S1). We validated the cytoprotective effects of PDpep1 in HEK293 cells overexpressing WT or A53T a-syn (Figs. 1B, S1A), as well as its ability to reduce WT or A53T a-syn oligomers in a luciferase-based PCA[18]–[20] compared to a scrambled control peptide (Figs. 1C, S1B).
HEK293T cells (ATCC, CRL-3216) were maintained in DMEM supplemented with 10% FBS and 1% pen/strep/glutamine, and the appropriate selection antibiotics when required. Lentiviruses were made in a 15 cm dish format by transfecting packaging cells (HEK293T) with a three-plasmid system (expression vector, psPAX2 and pMD2.G) and using Polyjet DNA transfection reagent (FroggaBio, SL100688.1). Viral transduction of HEK293T cells were performed with a multiplicity of infection (MOI) of 0.3. Infected cells were selected in puromycin-containing medium to eliminate uninfected cells and three aliquots of cells were collected for sampling of the initial (T0) cell population. Cells were treated with MG132 at concentrations of 0, 10, 25, or 50 µM. For the cell viability screen, surviving cells were collected and gDNA was extracted for identification of peptide inhibitors of cell toxicity. For the inhibition of a-syn aggregation screen, a protein fragment complementation assay (PCA) was used by transfecting cells with split YFP-a-syn constructs following stable expression of the peptides. Cells were sorted based on their YFP fluorescence intensities with a FACSVantage SE cell sorter (BD Bioscience) and gDNA was extracted for identification of peptides.
Cells were harvested by trypsin treatment and centrifuged at 500 × g for 5 min. The pellet was resuspended in ice-cold PBS and centrifuged again. The pellet was then resuspended at a concentration of 4 × 10^6 cells/ml in the sorting buffer, which is PBS containing 100 Kunitz DNase I/ml, 10 μg/ml propidium iodide (Sigma), and 2% FBS. The cells were then sent through a 40 μm filter to remove large clumps and loaded into either a FACScan Flow Cytometer (BD Bioscience) for cell analysis or a FACSVantage SE cell sorter (BD Bioscience) for cell sorting. The cells with positive propidium iodide staining (i.e., dead cells) were first eliminated from the analysis. […]

[2] = test system: Rab7; assay: Rab7 fluorescence in rat cortical neurons; type: cell-based; conditions: A53T a-syn
Description: Pregnant rats (E17) of the Sprague-Dawley strain were purchased from Envigo. Embryos were surgically removed from the mothers and cortices dissected in Hanks Balanced salt solution (Gibco). The meninges were removed, and cells were dissociated using a papain dissociation system (Worthington) before being resuspended in Neurobasal medium A supplemented with antibiotic-antimycotic solution (Gibco), L-glutamine substitute (GlutaMAX™; Gibco) and factor B27 (Gibco). […]
After fixation, cells were permeabilized with 0.2% Triton-X-100 for 15 min, washed three times with PBS and then incubated with blocking solution (1% BSA, 22.52 mg/mL glycine, 0.1% Tween-20 in PBS or 0.4% saponin, 1% BSA, and 5% goat or donkey serum in PBS) for 1 h. […] Following another three washes with PBS, nuclei were counterstained with DAPI (ThermoFisher) and then coverslips were mounted on slides using Dako fluorescence mounting medium (Agilent) and sealed using clear nail varnish.
Confocal images of primary cortical neurons, iPSC-derived dopaminergic neurons, and LAMP1 staining within the SN were processed using Imaris software (Oxford instruments). […] Mean pixel intensity per GFP^+ cell (for experiments using GFP-tagged peptides) or RFP^+ cell (for experiments using RFP-tagged peptides) was calculated for a-syn or LAMP1 signal using the software’s surfaces module. […]

Substance	Reads GFP High [1]	Reads GFP Inter [1]	Reads GFP Neg [1]	Reads Ratio [1]	Effect on Rab7 [2]
IPIQLKA [PDpep1, initial screen hit peptide IPIQLKA]	12	2853	15556	1,218.98	
DEEIERQLKALG [PDpep1.3]					normalized
